Assay results reported in PMC12735739, “Bromo Analogues of Active 3,4,5,4′-Tetramethoxy-trans-stilbene (DMU-212)—A New Path of Research to Anticancer Agents” (Molecules, 2025).
pIC50: −log10 of the molar value. ≈ marks a conversion by molar mass, not a printed value.

What was measured:
[1] = test system: patient P3 cell lines (3D model, patient-derived ovarian cancer); set-up: method as in PMID 27585955; conditions: 3D spheroid model; cited from earlier work
[2] = test system: ovarian cancer 2D culture; set-up: method as in PMID 27585955; conditions: 2D culture and liposomal drug delivery system; cited from earlier work
SK-OV-3 (3D model) = test system: SK-OV-3 (3D model); set-up: method as in PMID 27585955; conditions: 3D spheroid model; cited from earlier work
[3] = test system: human lung cancer cells (A549); set-up: method as in PMID 15464834, doi:10.1177/1934578X0700200419; conditions: read-out: IC50 in cultured human lung cancer cells (A549); cited from earlier work
[4] = test system: U251 human malignant glioblastoma; experiment: MTT cell viability assay, U251; format: cell-based; conditions: U-251, MTT test, 72 h of action, read-out: IC50, Tumour Cell Lines, U251 Human Malignant Glioblastoma
Method: (§1) The MTT cell viability assay was performed according to a previously reported protocol. Briefly, adherent cells were seeded at a density of 5000 cells per 100 µL, and suspension cells at 25,000 cells per 100 µL, in 96-well plates and incubated overnight. Subsequently, test compounds were added in 100 µL of culture medium, followed by incubation for 72 h. After treatment, 20 µL of MTT solution (5 mg/mL, Sigma-Aldrich, Burlington, MA, USA) was added to each well. The resulting formazan crystals were dissolved in DMSO (Sigma-Aldrich, Burlington, MA, USA), and absorbance was recorded using a BioTek ELx800 Absorbance Reader (BioTek Instruments, Inc., Vinooski, VT, USA). IC50 values were calculated by nonlinear regression analysis using GraphPad Prism (version 9.1.1, GraphPad Software, Boston, MA, USA). Experiments were conducted in triplicate. Human leukemia Jurkat T-cells, human glioblastoma U251 cells were kindly provided by Collection at the Institute of Molecular Biology and Genetics, National Academy of Sciences of Ukraine (Kyiv, Ukraine). Murine macrophages of J774.2 line were a generous gift from Prof. Sir John Vane (William Harvey Research Institute, London, UK) provided via Prof. Janusz Marcinkiewicz (Jagiellonian University Medical College, Krakow, Poland). Human colorectal adenocarcinoma cell line HT-29 was kindly provided by Prof. Anna Bielawska (Department of Biotechnology, Faculty of Pharmacy, Medical University of Bialystok, Poland). Murine BALB/3T3 fibroblasts was obtained from the Cell Collection of the R.E. Kavetsky Institute of Experimental Pathology, Oncology and Radiobiology (Kyiv, Ukraine).

[5] = test system: Jurkat human acute T-cell leukaemia; experiment: MTT cell viability assay, Jurkat; format: cell-based; conditions: MTT test, 72 h of action, read-out: IC50, Tumour Cell Lines, Jurkat Human Acute T-Cell Leukaemia
Method: as §1

[6] = test system: J744.2 mice macrophage-like cells; experiment: MTT cell viability assay, J744.2; format: cell-based; conditions: Mus musculus; MTT test, 72 h of action; read-out: IC50, Pseudo-Normal Cell Lines, J744.2 Mice Macrophage-Like Cells
Method: as §1

[7] = test system: HT-29 human colorectal carcinoma; experiment: MTT cell viability assay, HT-29; format: cell-based; conditions: MTT test, 72 h of action, read-out: IC50, Tumour Cell Lines, HT-29 Human Colorectal Carcinoma
Method: as §1

Balb-3T3 mice fibroblast = experiment: MTT cell viability assay, Balb-3T3; format: cell-based; conditions: Mus musculus, MTT test, 72 h of action, read-out: IC50, Pseudo-Normal Cell Lines, Balb-3T3 Mice Fibroblast
Method: as §1

Mucor indicus = test system: Mucor indicus; set-up: method as in PMID 30790326; conditions: cited from earlier work
Jurkat cells = experiment: Fluorescent microscopy of Jurkat cells (Hoechst 33342/EtBr staining); format: cell-based, human; conditions: 0.5 µM, 24 h
Method: Jurkat cells were seeded in 24-well plates at a density of 250,000 cells/mL and incubated overnight prior to treatment. Cells were then treated for 24 h with compounds 4, 7, and 8 (0.5 µM) or doxorubicin (0.5 µM) as a positive control. Following treatment, cells were stained with Hoechst 33342 (0.2–0.5 µg/mL; Sigma-Aldrich, USA) and ethidium bromide (EtBr, 1 µg/mL). Fluorescence imaging was performed using a LIM-400 microscope (LABEX INSTRUMENT LIMITED, Ningbo, China) equipped with an MTR3CCD camera. Images were captured and analysed using ImageView software (version 4.11.21522.20221011).

pancreas BXPC-3 = test system: pancreas BXPC-3; set-up: method as in PMID 15943482; conditions: cited from earlier work
lung-NSC NCI-H460 = test system: lung-NSC NCI-H460; set-up: method as in PMID 15943482; conditions: cited from earlier work
prostate DU-145 = test system: prostate DU-145; set-up: method as in PMID 15943482; conditions: cited from earlier work
neuroblast SK-N-SH = test system: neuroblast SK-N-SH; set-up: method as in PMID 15943482; conditions: cited from earlier work
salmon sperm DNA = experiment: DNA intercalation assay (methyl green displacement method); format: binding; conditions: 1 and 10 μM; for percentage of methyl green dye replaced from its complex with DNA: range over both doses; for affinity for DNA: methyl green displacement, in words
Method: To investigate the potential mechanisms of cell death induced by the studied derivative, we evaluated apoptosis using the fluorescence microscopy of cells stained with Hoechst-33342 and Ethidium Bromide (EtBr), as well as spectroscopic and DNA/methyl green displacement assays. Methyl green is a cationic dye that binds preferentially to the phosphate backbone of DNA (primarily in the major groove). If a compound (an intercalator or groove-binding agent) is added, it can compete with methyl green for binding to DNA. The higher the percentage of substituted methyl green, the stronger the compound interacts with DNA. Intercalation is the key feature of clinically used antitumor drugs, e.g., doxorubicin (DOX). DOX displaced 41.62–45.52% of methyl green from its complex with DNA (Figure 10). Another intercalator, EtBr, replaced 42.12–47.35% of methyl green from its complex with DNA.
A 485 μL aliquot of salmon sperm DNA (50 μg/mL, Sigma-Aldrich, Burlington, MA, USA) was incubated with 15 μL of methyl green solution (1 mg/mL, Sigma-Aldrich, Burlington, MA, USA) at 37 °C for 1 h. Subsequently, 500 μL of the test compounds, doxorubicin, or ethidium bromide (each at final concentrations of 1 μM and 10 μM) was added to the preformed methyl green–DNA complex. The samples were further incubated at 37 °C for 2 h in the dark. Absorbance was then recorded at 630 nm. GraphPad Prism (version 9.1.1, GraphPad Software, Boston, MA, USA) was used for the results analysis. Experiments were conducted in triplicate. Doxorubicin and ethidium bromide were purchased from Sigma-Aldrich, USA.

[8] = test system: Staphylococcus aureus 209P; set-up: method as in PMID 37298957; conditions: in words; cited from earlier work
P450 CYP1B1 isoform = test system: P450 CYP1B1 isoform; set-up: method as in PMID 28632937; conditions: read-out: IC50 against the P450 CYP1B1 isoform; cited from earlier work
[9] = test system: HeLa, MDA-MB-231, and MCF-7; set-up: method as in PMID 32171988; conditions: in words; cited from earlier work
cervical cancer HeLa = test system: cervical cancer HeLa; set-up: method as in PMID 28669347; conditions: cited from earlier work
glioblastoma U87 = test system: glioblastoma U87; set-up: method as in PMID 28669347; conditions: cited from earlier work

3-hydroxy-3,4,5,4′-tetramethoxy-trans-stilbene [DMU-214]
pIC50 [1]: 4.64 to 6.30 | pIC50 [2]: 7.66 | pIC50 (SK-OV-3 (3D model)): 4.85 to 5.54

COc1cc(/C=C/c2ccc(Br)cc2)cc(OC)c1OC [Compound 1, 4-bromo-3′,4′,5′-trimethoxy-trans-stilbene]
pIC50 [3]: 5.20 | pIC50 [4]: < 4.00 | pIC50 [5]: 5.65 | pIC50 [6]: 5.18 | pIC50 [7]: < 4.00 | pIC50 (Balb-3T3 mice fibroblast): 5.49 | MIC toward Mucor indicus (Mucor indicus): 25 µg/mL (≈ 71.6 µM)

COc1cc(/C=C/c2cc(OC)c(OC)c(OC)c2)cc(Br)c1OC [Compound 2, 3-bromo-3′,4′,5′,4,5-pentamethoxy-trans-stilbene]
pIC50 [4]: < 4.00 | pIC50 [5]: < 4.00 | pIC50 [6]: 5.10 | pIC50 [7]: < 4.00 | pIC50 (Balb-3T3 mice fibroblast): 4.14

COc1cc(/C=C/c2cc(Br)c(OC)c(Br)c2)cc(OC)c1OC [Compound 3, 3,5-dibromo-3′,4′,5′,4-tetramethoxy-trans-stilbene]
pIC50 [4]: < 4.00 | pIC50 [5]: < 4.00 | pIC50 [6]: 4.69 | pIC50 [7]: < 4.00 | pIC50 (Balb-3T3 mice fibroblast): 4.12

COc1ccc(/C=C/c2cc(OC)c(OC)c(OC)c2)cc1Br [Compound 4, 3-bromo-3′,4′,5′,4-tetramethoxy-trans-stilbene]
effect on cell morphology and viability (apoptosis, chromatin condensation, DNA fragmentation) (Jurkat cells): induced moderate apoptosis | pIC50 [4]: < 4.00 | GI50 pancreas BXPC-3 (pancreas BXPC-3): 0.34 µg/mL (≈ 0.897 µM) | pIC50 [5]: 6.12 | GI50 lung-NSC NCI-H460 (lung-NSC NCI-H460): 0.36 µg/mL (≈ 0.949 µM) | GI50 prostate DU-145 (prostate DU-145): 0.45 µg/mL (≈ 1.19 µM) | pIC50 [6]: 5.28 | pIC50 [7]: < 4.00 | pIC50 (Balb-3T3 mice fibroblast): 5.55 | GI50 neuroblast SK-N-SH (neuroblast SK-N-SH): 0.40 µg/mL (≈ 1.05 µM) | percentage of methyl green dye replaced from its complex with DNA (salmon sperm DNA): 1.87–5.98% | affinity for DNA (salmon sperm DNA): low affinity for DNA

COc1cc(Br)c(/C=C/c2cc(OC)c(OC)c(OC)c2)cc1OC [Compound 5, 2-bromo-3′,4′,5′,4,5-pentamethoxy-trans-stilbene]
pIC50 [4]: < 4.00 | pIC50 [5]: 4.16 | pIC50 [6]: 4.15 | pIC50 [7]: < 4.00 | pIC50 (Balb-3T3 mice fibroblast): 4.29

COc1cc(/C=C/c2cc(Br)cc(Br)c2)cc(OC)c1OC [Compound 6, 3,5-dibromo-3′,4′,5′-trimethoxy-trans-stilbene]
pIC50 [4]: < 4.00 | pIC50 [5]: 4.18 | pIC50 [6]: 5.00 | pIC50 [7]: < 4.00 | pIC50 (Balb-3T3 mice fibroblast): 5.43

COc1ccc(/C=C/c2cc(OC)c(OC)c(OC)c2)cc1 [Compound 7, 3,4,5,4′-tetramethoxy-trans-stilbene]
effect on cell morphology and viability (apoptosis, chromatin condensation, DNA fragmentation) (Jurkat cells): markedly reduced viable cell numbers and enhanced nuclear fragmentation | pIC50 [4]: < 4.00 | pIC50 [5]: 6.19 | pIC50 [6]: 6.08 | pIC50 [7]: < 4.00 | pIC50 (Balb-3T3 mice fibroblast): 5.55 | percentage of methyl green dye replaced from its complex with DNA (salmon sperm DNA): 1.87–5.98% | affinity for DNA (salmon sperm DNA): low affinity for DNA

COc1ccc(/C=C/c2cc(OC)c(OC)c(OC)c2)cc1OC [Compound 8, 3,3′,4,4’,5-pentamethoxy-trans-stilbene]
effect on cell morphology and viability (apoptosis, chromatin condensation, DNA fragmentation) (Jurkat cells): induced moderate apoptosis | pIC50 [4]: < 4.00 | pIC50 [5]: 6.09 | pIC50 [6]: 5.42 | pIC50 [7]: < 4.00 | pIC50 (Balb-3T3 mice fibroblast): 5.30 | percentage of methyl green dye replaced from its complex with DNA (salmon sperm DNA): 1.87–5.98% | affinity for DNA (salmon sperm DNA): low affinity for DNA

COc1cc(OC)c(OC)cc1/C=C/c1ccc(OC)c(OC)c1 [Compound 10, 2,3’,4,4’,5-pentamethoxy-trans-stilbene]
pIC50 [4]: < 4.00 | pIC50 [5]: 5.05 | pIC50 [6]: 4.04 | pIC50 [7]: < 4.00 | pIC50 (Balb-3T3 mice fibroblast): < 4.00

COc1cccc2c1C(=O)c1c(O)c3c(c(O)c1C2=O)C[C@@](O)(C(=O)CO)C[C@@H]3O[C@H]1C[C@H](N)[C@H](O)[C@H](C)O1 [DOX, doxorubicin, reference compound]
effect on cell morphology and viability (apoptosis, chromatin condensation, DNA fragmentation) (Jurkat cells): elicited a similar morphological disruption and chromatin fragmentation as compound 8 did | percentage of methyl green dye replaced from its complex with DNA (salmon sperm DNA): 41.62–45.52%

CC[n+]1c(-c2ccccc2)c2cc(N)ccc2c2ccc(N)cc21 [EtBr, Ethidium Bromide, reference compound]
percentage of methyl green dye replaced from its complex with DNA (salmon sperm DNA): 42.12–47.35%

Oc1ccccc1/C=C/c1cc[n+](Cc2ccccc2Br)cc1.[Br-] [IX, 1-(2-bromobenzyl)-4-[(E)-2-(2-hydroxyphenyl)ethenyl]pyridinium bromide]
activity against Staphylococcus aureus 209P [8]: promising activity

CSc1ccc(/C=C/c2ccccc2SC)cc1 [VI, 2,4′-dimethylthio-trans-stilbene]
pIC50 (P450 CYP1B1 isoform): 7.59

CCCCCCCCCCCCCCCC[N+](C)(CCCCCCCCCCCCCCCC)CNC(=O)c1cc(OC)c(OC)c(OC)c1/C=C/c1cc(OC)c(OC)c(OC)c1 [VII, quaternary amine derivative chloride of 4,5,6,3′,4′,5′-hexamethoxy-trans-stilbene]
antitumor activity against cancer lines compared with resveratrol and tamoxifen [9]: higher antitumor activity

COc1ccc(/C=C/c2ccc([N+](=O)[O-])cc2[N+](=O)[O-])c(O)c1 [VIII, 2-hydroxy-4-methoxy-2′,4′-ditro-trans-stilbene]
pIC50 (cervical cancer HeLa): 5.16 | pIC50 (glioblastoma U87): 4.25

COc1ccc(/C=C(\C#N)c2cc(OC)c(OC)c(OC)c2)cc1OC [Z isomer of compound XII, reference compound]
pIC50 [3]: 7.52
